Source: patent US20050014845A1, “Ambroxol for the treatment of epilepsy” (Boehringer Ingelheim International GmbH, priority 2003, published 2005)

How the values were obtained:
human GluR1/2 receptors = target: T1, human GluR1/2 receptors (Homo sapiens, UniProt P42261+P42262); assay: Patch-Clamp of glutamate-induced membrane currents in HEK 293 cells expressing GluR1/2; assay type: cell-based; conditions: 1 mM glutamate for 1 s, holding potential −80 mV
T1 construct: expressed in transfected cells; host or cells: HEK 293
T1 sequence (P42261 19-906): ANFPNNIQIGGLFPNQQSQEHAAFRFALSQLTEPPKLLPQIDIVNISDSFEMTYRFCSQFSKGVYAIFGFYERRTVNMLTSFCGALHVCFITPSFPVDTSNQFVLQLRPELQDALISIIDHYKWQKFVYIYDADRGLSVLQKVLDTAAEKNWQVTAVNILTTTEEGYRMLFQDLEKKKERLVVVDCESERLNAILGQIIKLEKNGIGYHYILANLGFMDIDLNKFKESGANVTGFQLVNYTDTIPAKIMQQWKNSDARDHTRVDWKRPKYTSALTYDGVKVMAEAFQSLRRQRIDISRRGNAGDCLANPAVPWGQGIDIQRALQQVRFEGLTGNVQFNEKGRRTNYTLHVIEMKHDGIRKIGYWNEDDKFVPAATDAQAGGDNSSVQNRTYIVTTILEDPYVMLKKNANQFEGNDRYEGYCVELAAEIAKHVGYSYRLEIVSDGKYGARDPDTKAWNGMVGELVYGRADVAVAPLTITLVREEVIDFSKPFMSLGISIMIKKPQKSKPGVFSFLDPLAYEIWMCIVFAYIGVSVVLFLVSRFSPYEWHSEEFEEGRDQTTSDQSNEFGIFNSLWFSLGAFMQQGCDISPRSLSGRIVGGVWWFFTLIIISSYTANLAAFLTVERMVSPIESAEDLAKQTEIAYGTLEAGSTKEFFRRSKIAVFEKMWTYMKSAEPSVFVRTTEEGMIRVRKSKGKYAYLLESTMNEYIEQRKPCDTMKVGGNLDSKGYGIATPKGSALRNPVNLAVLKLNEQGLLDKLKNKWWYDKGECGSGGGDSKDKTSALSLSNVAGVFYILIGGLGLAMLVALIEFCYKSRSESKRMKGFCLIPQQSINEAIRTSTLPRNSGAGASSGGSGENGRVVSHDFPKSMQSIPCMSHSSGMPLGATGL
T1 sequence (P42262 22-883 limits assumed): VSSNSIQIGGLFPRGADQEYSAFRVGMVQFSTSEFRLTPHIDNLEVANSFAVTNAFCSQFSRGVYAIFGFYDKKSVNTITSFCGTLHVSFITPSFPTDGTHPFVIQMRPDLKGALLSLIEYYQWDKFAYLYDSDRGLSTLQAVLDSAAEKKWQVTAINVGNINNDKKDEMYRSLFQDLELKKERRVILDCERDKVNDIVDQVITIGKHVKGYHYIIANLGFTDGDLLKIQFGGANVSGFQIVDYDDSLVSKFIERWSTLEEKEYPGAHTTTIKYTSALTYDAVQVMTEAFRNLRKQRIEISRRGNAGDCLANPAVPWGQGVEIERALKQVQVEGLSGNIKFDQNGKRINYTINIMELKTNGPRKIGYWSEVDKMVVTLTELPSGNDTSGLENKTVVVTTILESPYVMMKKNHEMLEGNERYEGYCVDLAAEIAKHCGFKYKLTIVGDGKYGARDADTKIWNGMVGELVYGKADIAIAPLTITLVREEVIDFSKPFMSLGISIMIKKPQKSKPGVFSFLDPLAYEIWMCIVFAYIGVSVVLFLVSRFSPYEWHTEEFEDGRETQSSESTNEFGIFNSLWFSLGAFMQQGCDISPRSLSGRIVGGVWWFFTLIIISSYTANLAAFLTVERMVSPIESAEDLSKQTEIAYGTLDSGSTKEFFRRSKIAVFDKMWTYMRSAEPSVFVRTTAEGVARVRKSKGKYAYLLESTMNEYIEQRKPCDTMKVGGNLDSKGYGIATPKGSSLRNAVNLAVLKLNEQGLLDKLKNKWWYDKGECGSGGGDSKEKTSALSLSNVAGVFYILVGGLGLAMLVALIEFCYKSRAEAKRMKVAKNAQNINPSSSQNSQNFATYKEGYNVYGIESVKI
Procedure: HEK 293 cells which expressed functionally recombinant human GluR1/2 receptors were electrophysiologically investigated by the Patch-Clamp method ([…]). The administration of 1 mM glutamate (for 1 s at a holding potential of −80 mV) induced membrane currents which were inhibited by the joint administration of ambroxol.

[1] = tested on: centrally expressed neuronal sodium channels; conditions: neuronal sodium channel subtypes, read-out: half-maximal inhibition of centrally expressed channels; cited from earlier work

- concentrations inhibiting glutamate-induced membrane currents (human GluR1/2 receptors): 30 to 1000 µM
Structure (SMILES): Nc1c(Br)cc(Br)cc1CN[C@H]1CC[C@H](O)CC1 [ambroxol, trans-4-(2-amino-3,5-dibromobenzylamino)cyclohexanol]
- IC50 [1]: 111 µM
